We go through two compounds from patent publication US20220088144A1, “SGLT-2 INHIBITORS OR IL-1R ANTAGONISTS FOR REDUCTION OF HYPOGLYCAEMIA AFTER BARIATRIC SURGERY” (UNIVERSITÄTSSPITAL BASEL, priority 2019, published 2022).

Data set [1] has as its target T1, sodium glucose co-transporter 2 (SGLT2) (Homo sapiens, UniProt P31639).
T1 construct: SGLT2 is predominantly expressed in the proximal tubule of the kidney; host or cells: endogenous transporter of the kidney proximal tubule (in vivo, patients)
T1 sequence (P31639 1-672): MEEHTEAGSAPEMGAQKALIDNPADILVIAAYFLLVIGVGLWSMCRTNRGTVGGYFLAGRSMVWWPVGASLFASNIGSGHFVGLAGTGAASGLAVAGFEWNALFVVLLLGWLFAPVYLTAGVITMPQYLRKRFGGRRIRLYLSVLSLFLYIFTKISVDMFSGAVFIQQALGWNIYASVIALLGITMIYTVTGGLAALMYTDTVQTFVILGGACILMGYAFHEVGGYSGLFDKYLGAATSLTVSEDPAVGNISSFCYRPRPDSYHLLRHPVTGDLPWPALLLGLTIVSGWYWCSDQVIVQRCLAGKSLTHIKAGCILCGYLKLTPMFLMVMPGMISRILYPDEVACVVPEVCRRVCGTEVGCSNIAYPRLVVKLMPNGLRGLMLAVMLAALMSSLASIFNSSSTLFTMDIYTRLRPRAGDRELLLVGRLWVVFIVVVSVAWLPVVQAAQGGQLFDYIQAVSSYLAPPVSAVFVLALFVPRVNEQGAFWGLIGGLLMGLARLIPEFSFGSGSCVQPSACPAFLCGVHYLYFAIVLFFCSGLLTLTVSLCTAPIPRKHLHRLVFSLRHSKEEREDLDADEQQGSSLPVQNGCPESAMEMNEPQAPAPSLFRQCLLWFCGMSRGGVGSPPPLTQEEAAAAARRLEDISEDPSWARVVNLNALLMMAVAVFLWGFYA
The conditions noted are these: cited from earlier work.

A short description of data set [2]: Serum IL-1Ra level after anakinra injection. The format is in vivo, human. The conditions noted are these: average; 100 mg s.c.; increased from an average of 272 pg/ml. The text has this: The secondary objectives are to evaluate whether treatment of empagliflozin (Jardiance®) or anakinra (Kineret®) have effects on the following aspects: • level of insulin secretion and sensitivity • levels of GLP-1, glucagon and C-peptide • levels of IL-6; IL-1Ra, CRP • scores in Edinburgh Hypoglycaemia Scale (clinical score for assessment of hypoglycemia), Stanford Sleepiness Scale (clinical score of assessment of sleepiness) as well as Sigstad Score (clinical score for early and late dumping symptoms) • Length of time and amount of glucose needed for restoring normoglycemia.
Individual body weights remained stable throughout the study period. […] Leukocyte and CRP levels were not elevated and remained stable throughout the trial.

Take `OC[C@H]1O[C@@H](c2ccc(Cl)c(Cc3ccc(O[C@H]4CCOC4)cc3)c2)[C@H](O)[C@@H](O)[C@@H]1O` [empagliflozin]: in data set [1] (after oral administration), the duration of glucosuria entry was “at least 24 hours”. The glucosuria in data set [1] (in vivo) is 64 g glucose per day.
Consider “anakinra: CAS NO 143090-92-0; recombinant, non-glycosylated form of the human interleukin-1 receptor antagonist (IL-1 Ra), 153 amino acids”, for which, in data set [2], the “serum levels of IL-1Ra after injection of anakinra” value is 43.836 ng/mL.
